{
  "source": "patent US20090197880A1",
  "about": "(Genelabs Technologies, Inc., priority 2007, published 2009)",
  "assay": "HCV replicon assay (luciferase) in ET (Huh-lucubineo-ET) cell line",
  "format": "cell-based",
  "settings": "Hepatitis C virus; tested at 10 μM; inhibition of replication relative to no compound control; ET replicon cells, luciferase 48-72 hours; read-out: % inhition at 10 μM",
  "data": [
    {"compound": "Oc1ccc(-c2cc(Cn3cc4nc(-c5cccc(F)c5F)nc-4cn3)on2)c(C(F)(F)F)c1", "note": "[Compound 340, 4-{5-[2-(2,3-Difluoro-phenyl)-imidazo[4,5-d]pyridazin-5-ylmethyl]-isoxazol-3-yl}-3-trifluoromethyl-phenol]", "values": [
      {"measurement": "inhibition at 10 µM", "result": 0.116, "unit": "%"}
    ]}
  ]
}
